Experimental findings from ChEMBL document CHEMBL1201862, “PubChem BioAssay data set” (2004) are described below.

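Compound exposure: 48 hours, 5 concentrations, 96-well plates. The concentration for 50% growth inhibition is given as GI50.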 Calls of active or inactive are those of the source. Rule as the data show it: active = GI50 up to about 1.1 µM and inactive = higher. A value given as a limit tells only on which side of the number the result lay.

What all share (experiment): NCI tumour cell line growth inhibition, 48 h
The test system of experiment [1] is A549.
Experiment [2] has as its system RPMI-8226.
Experiment [3] deals with SF-268.
The test system of experiment [4] is SK-MEL-2.
Experiment [5] relates to U-251.
Experiment [6] concerns NCI-H23.
Experiment [7] relates to SNB-19.
The subject of experiment [8] is OVCAR-3.
The subject of experiment [9] is UACC-257.
For experiment [10], the system named is SK-MEL-28.
In experiment [11] the test system is UACC-62.
The subject of experiment [12] is HCT-116.
Experiment [13] deals with SF-295.
Experiment [14] concerns OVCAR-8.
Experiment [15] has as its system UO-31.
Experiment [16] deals with SW-620.
Experiment [17] concerns NCI-H460.
In experiment [18] the test system is OVCAR-5.
Experiment [19] concerns HCT-15.

As to `COc1ccc(CNc2nc3cc(C(F)(F)F)ccc3nc2C)cc1OC`, the GI50 in experiment [1] was 32.1 µM (inactive); in [2], 27.1 µM (inactive); in experiment [3], 33.3 µM (inactive); in experiment [4], 19.5 µM (inactive); in [5], 37 µM (inactive); in experiment [6], 35.7 µM (inactive). Further, the GI50 is 41.6 µM (inactive) in experiment [7]; 32.5 µM (inactive) in experiment [8]; 19 µM (inactive) in [9]; 44.1 µM (inactive) in experiment [10]; 31.6 µM (inactive) in experiment [11]; 26.2 µM (inactive) in experiment [12]. The GI50 in experiment [13] is 34.4 µM (inactive); in [14] it was 30.3 µM (inactive); in experiment [15], 24 µM (inactive); in experiment [16], 37.9 µM (inactive); in experiment [17], 30.1 µM (inactive); in [18] it was 37.5 µM (inactive). In addition, in experiment [19], the GI50 is 34.8 µM.
As to `O=C1C=C[C@@H](COC2OC(CO)C(O)C(O)C2O)O1` (stereo partly drawn), the GI50 is 22 µM (inactive) in experiment [1]; 3.16 µM (inactive) in experiment [2]; 25.8 µM (inactive) in [3]; 13.6 µM (inactive) in [4]; 15.7 µM (inactive) in experiment [5]; 10.9 µM (inactive) in experiment [6]. In addition, the GI50 in [7] was > 10 µM (inactive); in [8], 16.8 µM (inactive); in [9], 14.3 µM (inactive); in experiment [10] it was > 100 µM (inactive); in [11], 10.2 µM (inactive); in [12] it was > 100 µM (inactive). For the same molecule, the GI50 in experiment [13] is 18.1 µM (inactive); in experiment [14] it was 14.2 µM (inactive); in experiment [15], 50.2 µM (inactive); in experiment [16], 3.78 µM (inactive); in experiment [17], 10.3 µM (inactive); in [18], 22 µM (inactive). The same molecule showed a GI50 in experiment [19] of 3.69 µM.
Consider `Cn1cc(C(=O)/C(Cl)=C(\Cl)C(=O)O)c2ccccc21`, for which the GI50 in [1], in [2], in experiment [4], in experiment [5], in experiment [6] and in [8] was > 100 µM (inactive) in each case. The GI50 in experiment [9], in experiment [10], in experiment [11], in experiment [12], in [13] and in [14] was > 100 µM (inactive) each time. The GI50 in experiment [15] was > 100 µM (inactive); in experiment [16], > 100 µM (inactive); in experiment [17], > 100 µM (inactive); in experiment [18], > 100 µM (inactive); in [19], greater than 100 µM.
Take `Cc1c(C#N)c2nnn(C)c(=O)n2c1-c1ccccc1`: the GI50 in experiment [1] was 86.3 µM (inactive); in experiment [2], 84.9 µM (inactive); in experiment [3], > 100 µM (inactive); in experiment [4] it was > 100 µM (inactive); in experiment [5], > 100 µM (inactive); in experiment [6], 59.3 µM (inactive). The GI50 was > 100 µM (inactive) in experiment [7]; > 100 µM (inactive) in experiment [8]; 34.4 µM (inactive) in experiment [9]; > 100 µM (inactive) in experiment [10]; > 100 µM (inactive) in [11]; 51.6 µM (inactive) in experiment [13]. Moreover, the GI50 in experiment [14] was 48.2 µM (inactive); in experiment [15], 95.5 µM (inactive); in experiment [16] it was > 100 µM (inactive); in experiment [17], > 100 µM (inactive); in experiment [18] it was > 100 µM (inactive); in experiment [19] it was greater than 100 µM.
For the molecule `Cc1c2ccnc(C(F)(F)F)c2cc2c1[nH]c1ccccc12`, the GI50 in experiment [1] was > 125 µM (inactive); in experiment [2] it was 85.1 µM (inactive); in experiment [3], 101 µM (inactive); in experiment [4], > 125 µM (inactive); in experiment [5], > 125 µM (inactive); in [6] it was > 125 µM (inactive). Besides, the GI50 in [7] was 118 µM (inactive); in [8] it was 114 µM (inactive); in [9], > 125 µM (inactive); in experiment [10], > 125 µM (inactive); in experiment [11] it was > 125 µM (inactive); in experiment [12], > 125 µM (inactive). Besides, the GI50 is 23.2 µM (inactive) in experiment [13]; 110 µM (inactive) in experiment [14]; > 125 µM (inactive) in experiment [15]; > 125 µM (inactive) in [16]; 123 µM (inactive) in experiment [17]; > 125 µM (inactive) in experiment [18]. The GI50 in [19] was greater than 125 µM.
In the case of `CC(O)C(O)C(N)CC=O` (stereo not drawn), the GI50 in [1], in experiment [2], in [3], in experiment [4], in experiment [5] and in [6] was > 500 µM (inactive) each time. Moreover, the GI50 in experiment [7], in experiment [8], in experiment [9], in experiment [10], in experiment [11] and in experiment [12] was > 500 µM (inactive) throughout. In addition, the GI50 in experiment [13] was > 500 µM (inactive); in experiment [14], > 500 µM (inactive); in [15], > 500 µM (inactive); in experiment [16] it was > 158 µM (inactive); in experiment [17] it was > 500 µM (inactive); in experiment [18] it was 175 µM (inactive). The molecule also registered a GI50 in experiment [19] greater than 500 µM.
As to `Cc1sc(Cc2ccccc2)nc1-c1ccc(N)cc1`, the GI50 is 30.6 µM (inactive) in experiment [1]; 16.3 µM (inactive) in experiment [2]; 25 µM (inactive) in experiment [3]; 17.3 µM (inactive) in experiment [4]; 26.6 µM (inactive) in experiment [5]; 32.9 µM (inactive) in [6]. Also, the GI50 in [7] was 48.4 µM (inactive); in experiment [8], 20.7 µM (inactive); in [9] it was 30 µM (inactive); in experiment [10] it was 30.9 µM (inactive); in [11], 15.1 µM (inactive); in experiment [12] it was 20.2 µM (inactive). Further, the GI50 in experiment [13] was 37.4 µM (inactive); in experiment [14] it was 31 µM (inactive); in [15], 38.9 µM (inactive); in experiment [16], 23.7 µM (inactive); in experiment [17], 23 µM (inactive); in [18], 32.5 µM (inactive). This molecule gave a GI50 in experiment [19] of 19.8 µM.
As to `COc1cc(Nc2nc3cc(C(F)(F)F)ccc3n3cccc23)cc(OC)c1OC`, the GI50 in [1], in experiment [2], in [3], in experiment [4], in [5] and in experiment [6] was > 100 µM (inactive) in each case. Further, the GI50 in experiment [7], in [8], in experiment [9], in experiment [10], in experiment [11] and in experiment [12] was > 100 µM (inactive) in each case. For the same molecule, the GI50 is 5.02 µM (inactive) in [13]; > 100 µM (inactive) in experiment [14]; > 100 µM (inactive) in experiment [15]; > 100 µM (inactive) in [16]; > 100 µM (inactive) in experiment [18]; greater than 100 µM in [19].
